Among the data in patent US10273222B2 (CELGENE QUANTICEL RESEARCH, INC., priority 2013, dated 2019) are IC50 values, retold here.

Molecules are shown by their SMILES.

Test [1] deals with FBXL10 (Homo sapiens (Human), UniProt Q8NHM5). Kind of test: FBXL10 in vitro enzyme inhibition assay (AlphaScreen). Type of test: biochemical. On the procedure:
Reaction product was determined quantitatively by AlphaScreen detection after the addition of detection reagents anti-H3K36me1 antibody, AlphaScreen® Streptavidin-coated Donor beads, and AlphaScreen® Protein A Acceptor beads in 50 mM HEPES, pH7.3, 10 mM NaCl, 0.005% Brij35, 5 mM EDTA, 2 mg/ml BSA to final 10 μg/ml beads.
Plates were incubated at room temperature for 40 minutes, followed by addition of 3 μl of 50 μg/ml AlphaScreen® Streptavidin-coated Donor beads and AlphaScreen® Protein A Acceptor beads in 50 mM HEPES, pH7.3, 10 mM NaCl, 0.005% Brij35, 5 mM EDTA, 2 mg/ml BSA. Plates were read by EnVisionMultilabel Reader in AlphaScreen mode after a minimum of 2 hour or up to overnight incubation at room temperature. The AlphaScreen signal for each well was used to determine inhibition constant (IC50).
Background: Bead proximity is the source of the signal in Alpha formats.

The target of test [2] is JMJD2C (Homo sapiens (Human), UniProt Q9H3R0). Kind of test: JMJD2C in vitro enzyme inhibition assay (TR-FRET). Type of test: biochemical. Background: In TR-FRET formats the signal depends on donor and acceptor labels being close together.
Chain of JMJD2C (Q9H3R0 2-372): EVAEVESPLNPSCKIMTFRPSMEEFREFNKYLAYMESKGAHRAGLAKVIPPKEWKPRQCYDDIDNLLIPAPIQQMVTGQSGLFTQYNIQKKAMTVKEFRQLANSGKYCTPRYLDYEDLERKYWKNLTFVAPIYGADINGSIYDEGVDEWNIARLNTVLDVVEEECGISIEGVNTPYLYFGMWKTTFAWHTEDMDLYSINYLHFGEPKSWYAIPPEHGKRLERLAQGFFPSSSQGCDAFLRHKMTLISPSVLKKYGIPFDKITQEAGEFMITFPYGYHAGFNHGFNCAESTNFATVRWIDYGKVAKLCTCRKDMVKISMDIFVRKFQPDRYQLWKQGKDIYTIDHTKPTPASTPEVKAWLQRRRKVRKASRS

Chain of FBXL10 (Q8NHM5 1-650): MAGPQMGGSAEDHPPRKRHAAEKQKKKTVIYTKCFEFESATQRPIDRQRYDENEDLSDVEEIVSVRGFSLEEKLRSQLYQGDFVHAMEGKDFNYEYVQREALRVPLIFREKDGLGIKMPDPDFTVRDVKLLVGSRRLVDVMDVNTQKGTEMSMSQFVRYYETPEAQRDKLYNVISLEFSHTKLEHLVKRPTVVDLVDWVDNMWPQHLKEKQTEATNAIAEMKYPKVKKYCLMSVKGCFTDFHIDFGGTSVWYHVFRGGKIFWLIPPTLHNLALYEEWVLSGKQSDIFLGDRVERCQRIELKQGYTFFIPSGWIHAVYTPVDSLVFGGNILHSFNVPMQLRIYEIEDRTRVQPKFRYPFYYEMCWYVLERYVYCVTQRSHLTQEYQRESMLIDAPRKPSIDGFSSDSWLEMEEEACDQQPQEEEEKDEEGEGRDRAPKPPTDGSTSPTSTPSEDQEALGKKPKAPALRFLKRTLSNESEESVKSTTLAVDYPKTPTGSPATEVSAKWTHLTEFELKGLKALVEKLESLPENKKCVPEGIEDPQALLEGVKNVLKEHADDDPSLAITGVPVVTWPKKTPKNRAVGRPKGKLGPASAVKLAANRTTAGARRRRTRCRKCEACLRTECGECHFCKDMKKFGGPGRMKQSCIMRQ

With `Fc1ccc(-c2c(-c3cc(-c4nn[nH]n4)ccn3)ncn2Cc2cccc(Cl)c2)c(OCC2CC2)c1` [Example 169, 2-(1-(3-chlorobenzyl)-5-(2-(cyclopropylmethoxy)-4-fluorophenyl)-1H-imidazol-4-yl)-4-(2H-tetrazol-5-yl)pyridine], the figures for the IC50 in test [1] and in test [2] were 100 to 1000 nM and 1000 to 10000 nM, respectively.

For `Cn1cnc(-c2cc(-c3nn[nH]n3)ccn2)c1-c1ccc(F)cc1OCc1ccccc1` [Example 148, 2-[5-(4-fluoro-2-phenylmethoxyphenyl)-1-methylimidazol-4-yl]-4-(2H-tetrazol-5-yl)pyridine], the IC50 in test [1] was not above 100 nM; in test [2] it was 1000 to 10000 nM. On the same counts, the results for `Clc1cccc(Cn2cnc(-c3cc(-c4nn[nH]n4)ccn3)c2)c1Cl` [Example 158, 2-[1-[(2,3-dichlorophenyl)methyl]imidazol-4-yl]-4-(2H-tetrazol-5-yl)pyridine] are not above 100 nM and 1000 to 10000 nM. On the same counts, the results for `CC(c1ccccc1Cl)n1cnc(-c2cc(-c3nn[nH]n3)ccn2)c1` (stereo not shown) [Example 157, 2-[1-[1-(2-chlorophenyl)ethyl]imidazol-4-yl]-4-(2H-tetrazol-5-yl)pyridine] are not above 100 nM and 1000 to 10000 nM. With `CCCCOc1cc(F)ccc1-c1c(-c2cc(-c3nn[nH]n3)ccn2)ncn1C` [Example 149, 2-[5-(2-butoxy-4-fluorophenyl)-1-methylimidazol-4-yl]-4-(2H-tetrazol-5-yl)pyridine], the IC50 in test [1] was not above 100 nM; in test [2] it was 1000 to 10000 nM. On to `Clc1cccc(Cn2cnc(-c3cc(-c4nn[nH]n4)ccn3)c2)c1` [Example 130, 2-[1-[(3-chlorophenyl)methyl]imidazol-4-yl]-4-(2H-tetrazol-5-yl)pyridine], for which the results for the IC50 in test [1] and in test [2] were not above 100 nM and 1000 to 10000 nM, respectively. On the same counts, the results for `FC(F)(F)Oc1ccccc1Cn1cnc(-c2cc(-c3nn[nH]n3)ccn2)c1` [Example 156, 4-(2H-tetrazol-5-yl)-2-[1-[[2-(trifluoromethoxy)phenyl]methyl]imidazol-4-yl]pyridine] are not above 100 nM and 1000 to 10000 nM. On the same counts, the results for `Cn1nnc(-c2ccnc(-c3cn(Cc4ccccc4Cl)cn3)c2)n1` [Example 165, 2-(1-(2-chlorobenzyl)-1H-imidazol-4-yl)-4-(2-methyl-2H-tetrazol-5-yl)pyridine] are 1000 to 10000 nM and 1000 to 10000 nM. As for `Cc1ccc(OCC2CC2)c(-c2c(-c3cc(C(=O)O)ccn3)ncn2C)c1` [Example 123, 2-[5-[2-(cyclopropylmethoxy)-5-methylphenyl]-1-methylimidazol-4-yl]pyridine-4-carboxylic acid], the IC50 in test [1] fell in the range of 100 to 1000 nM; in test [2], 1000 to 10000 nM. On the same counts, the results for `CC(=O)OCn1nnc(-c2ccnc(-c3ncn(Cc4ccccc4Cl)c3-c3ccc(F)cc3)c2)n1` [Example 138, [5-[2-[1-[(2-chlorophenyl)methyl]-5-(4-fluorophenyl)imidazol-4-yl]pyridin-4-yl]tetrazol-2-yl]methyl acetate] are 1000 to 10000 nM and 1000 to 10000 nM.

`Clc1ccc(Cn2cnc(-c3cc(-c4nn[nH]n4)ccn3)c2)cc1` [Example 131, 2-[1-[(4-chlorophenyl)methyl]imidazol-4-yl]-4-(2H-tetrazol-5-yl)pyridine]: the IC50 in test [1] was not above 100 nM; in test [2] it was 1000 to 10000 nM.

With `Clc1cccc(Cl)c1Cn1cnc(-c2cc(-c3nn[nH]n3)ccn2)c1` [Example 151, 2-[1-[(2,6-dichlorophenyl)methyl]imidazol-4-yl]-4-(2H-tetrazol-5-yl)pyridine], the IC50 in test [1] was not above 100 nM; in test [2] it was 1000 to 10000 nM. On the same counts, the results for `O=C(O)c1ccnc(-c2ncn(CC3CC3)c2-c2ccc(Cl)cc2)c1` [Example 126, 2-[5-(4-chlorophenyl)-1-(cyclopropylmethyl)imidazol-4-yl]pyridine-4-carboxylic acid] are not above 100 nM and 1000 to 10000 nM.

Turning to `Fc1ccc(-c2c(-c3cc(-c4nn[nH]n4)ccn3)ncn2CCc2ccccc2Cl)cc1` [Example 132, 2-[1-[2-(2-chlorophenyl)ethyl]-5-(4-fluorophenyl)imidazol-4-yl]-4-(2H-tetrazol-5-yl)pyridine], the results for the IC50 in test [1] and in test [2] were not above 100 nM and 1000 to 10000 nM, respectively. On the same counts, the results for `O=C(O)c1ccnc(-c2cn(Cc3cccc(C(F)(F)F)c3)cn2)c1` [Example 117, 2-[1-[[3-(trifluoromethyl)phenyl]methyl]imidazol-4-yl]pyridine-4-carboxylic acid] are not above 100 nM and 100 to 1000 nM. On the same counts, the results for `Fc1ccc(-c2c(-c3cc(-c4nn[nH]n4)ccn3)ncn2CC(F)(F)F)cc1` [Example 134, 2-[5-(4-fluorophenyl)-1-(2,2,2-trifluoroethyl)imidazol-4-yl]-4-(2H-tetrazol-5-yl)pyridine] are not above 100 nM and 1000 to 10000 nM. On the same counts, the results for `c1ccc2c(Cn3cnc(-c4cc(-c5nn[nH]n5)ccn4)c3)cccc2c1` [Example 155, 2-[1-(naphthalen-1-ylmethyl)imidazol-4-yl]-4-(2H-tetrazol-5-yl)pyridine] are not above 100 nM and 1000 to 10000 nM. Consider `Cn1cnc(-c2cc(-c3nn[nH]n3)ccn2)c1-c1ccc(Cl)c(OCc2ccccc2)c1` [Example 161, 2-[5-(4-chloro-3-phenylmethoxyphenyl)-1-methylimidazol-4-yl]-4-(2H-tetrazol-5-yl)pyridi], for which, in test [1], the IC50 is not above 100 nM. Turning to `Cn1cnc(-c2cc(C(=O)O)ccn2)c1-c1c(F)cccc1OCC1CC1` [Example 122, 2-[5-[2-(cyclopropylmethoxy)-6-fluorophenyl]-1-methylimidazol-4-yl]pyridine-4-carboxylic acid], the IC50 in test [1] was not above 100 nM; in test [2], 1000 to 10000 nM.

For the compound `CC(=O)OCn1nnc(-c2ccnc(-c3cn(Cc4ccccc4Cl)cn3)c2)n1` [Example 167, (5-(2-(1-(2-chlorobenzyl)-1H-imidazol-4-yl)pyridin-4-yl)-2H-tetrazol-2-yl)methyl acetate], the results for the IC50 in test [1] and in test [2] were 100 to 1000 nM and 1000 to 10000 nM, respectively. On the same counts, the results for `CCOc1ccccc1CCn1cnc(-c2cc(-c3nn[nH]n3)ccn2)c1` [Example 128, 2-[1-[2-(2-ethoxyphenyl)ethyl]imidazol-4-yl]-4-(2H-tetrazol-5-yl)pyridine] are not above 100 nM and 1000 to 10000 nM.

In the case of `Cn1cnc(-c2cc(-c3nn[nH]n3)ccn2)c1-c1ccc(F)c2ccccc12` [Example 164, 2-[5-(4-fluoronaphthalen-1-yl)-1-methylimidazol-4-yl]-4-(2H-tetrazol-5-yl)pyridine], the IC50 in test [1] is not above 100 nM; in test [2] it was 1000 to 10000 nM. On the same counts, the results for `c1ccc2c(c1)CCC(Cn1cnc(-c3cc(-c4nn[nH]n4)ccn3)c1)C2` (stereo not shown) [Example 146, 2-[1-(1,2,3,4-tetrahydronaphthalen-2-ylmethyl)imidazol-4-yl]-4-(2H-tetrazol-5-yl)pyridine] are not above 100 nM and 1000 to 10000 nM. On the same counts, the results for `Clc1ccc(-c2c(-c3cc(-c4nn[nH]n4)ccn3)ncn2CCc2ccccc2Cl)cc1` [Example 133, 2-[5-(4-chlorophenyl)-1-[2-(2-chlorophenyl)ethyl]imidazol-4-yl]-4-(2H-tetrazol-5-yl)pyridine] are 100 to 1000 nM and 1000 to 10000 nM.

With `O=C(O)c1ccnc(-c2ncn(CCc3ccccc3Cl)c2-c2ccc(F)cc2)c1` [Example 124, 2-[1-[2-(2-chlorophenyl)ethyl]-5-(4-fluorophenyl)imidazol-4-yl]pyridine-4-carboxylic acid], the IC50 was not above 100 nM in test [1] and 100 to 1000 nM in test [2].

With `Cn1cnc(-c2cc(-c3nn[nH]n3)ccn2)c1-c1ccc(F)c(OCc2ccccc2)c1` [Example 160, 2-[5-(4-fluoro-3-phenylmethoxyphenyl)-1-methylimidazol-4-yl]-4-(2H-tetrazol-5-yl)pyridine], the results for the IC50 in test [1] and in test [2] were not above 100 nM and 1000 to 10000 nM, respectively. On to `O=C(O)c1ccnc(-c2ncn(Cc3ccccc3Cl)c2-c2ccc(F)cc2)c1` [Example 127, 2-[1-[(2-chlorophenyl)methyl]-5-(4-fluorophenyl)imidazol-4-yl]pyridine-4-carboxylic acid], for which the figures for the concentration for half-maximal inhibition (IC50) in test [1] and in test [2] were not above 100 nM and 1000 to 10000 nM, respectively.

As for `CC(C)COc1ccccc1Cn1cnc(-c2cc(-c3nn[nH]n3)ccn2)c1` [Example 153, 2-[1-[[2-(2-methylpropoxy)phenyl]methyl]imidazol-4-yl]-4-(2H-tetrazol-5-yl)pyridine], the 50% inhibitory concentration (IC50) is 100 to 1000 nM in test [1] and 1000 to 10000 nM in test [2].

Take `FC(F)(F)COc1ccccc1Cn1cnc(-c2cc(-c3nn[nH]n3)ccn2)c1` [Example 152, 4-(2H-tetrazol-5-yl)-2-[1-[[2-(2,2,2-trifluoroethoxy)phenyl]methyl]imidazol-4-yl]pyridine]: the IC50 in test [1] was not above 100 nM; in test [2], 1000 to 10000 nM. On the same counts, the results for `Fc1ccc(-c2c(-c3cc(-c4nn[nH]n4)ccn3)ncn2CC2CC2)cc1` [Example 135, 2-[1-(cyclopropylmethyl)-5-(4-fluorophenyl)imidazol-4-yl]-4-(2H-tetrazol-5-yl)pyridine] are not above 100 nM and 1000 to 10000 nM. On the same counts, the results for `Cn1cnc(-c2cc(-c3nn[nH]n3)ccn2)c1-c1ccc(F)c(OCC(F)(F)F)c1` [Example 159, 2-[5-[4-fluoro-3-(2,2,2-trifluoroethoxy)phenyl]-1-methylimidazol-4-yl]-4-(2H-tetrazol-5-yl)pyridine] are 100 to 1000 nM and 1000 to 10000 nM.

As a reminder, the IC50 is the concentration that gives 50% inhibition.
